Experimental data: patent publication US11059854B2, “Method for preparing steroid derivative FXR agonist” (Chia Tai Tianqing Pharmaceutical Group Co., Ltd., priority 2017, dated 2021)

Columns and labels:
[1] = Liver-blood ratio experiment of mice via cassette dosing; assay type: in vivo, C57BL/6J male mice; details: for Liver concentration 0.5 h / Liver/plasma concentration ratio 0.5 h / Plasma concentration 0.5 h / Liver concentration 3 h / Liver/plasma concentration ratio 3 h / Plasma concentration 3 h: oral cassette 2 mg/kg/compound
Procedure: Six C57BL/6J male mice were grouped as one oral group. The preparation contained 5 kinds of the developed drugs, and 2 mg/kg/compound was intragastrically administered (the solvent was 0.5% HPMC aqueous solution). The five compounds were firstly dissolved in the solvent, respectively, by ultrasonication or vortex, to form 1 mg/mL solutions (clear solution or suspension), and then the solutions of the five compound were mixed in equal volumes (1:1:1:1:1, v:v:v:v:v) in a glass bottle. After intragastrical oral administration, plasma and liver tissue samples were collected from 3 animals at 0.5 hours after administration; corresponding samples were collected from the other 3 animals at 3 hours after administration. After collection, the liver tissue was homogenized by using ice-cold homogenization buffer (methanol: 15 mM PBS buffer (pH 7.4)=1:2, v:v) according to liver weight: homogenization buffer volume=1:3. Plasma and liver tissue samples were analyzed by using a five-in-one LC-MS/MS analysis method developed in advance. Plasma concentrations and liver tissue homogenate concentrations were obtained, and the concentration ratio of liver tissue to plasma was calculated by using Excel.

[2] = target: T1, glutathione-S-transferase-labeled FXR human protein (Homo sapiens, UniProt Q96RI1); assay: FXR biochemical experiment (alphascreen, coactivator recruitment); details: for FXR enzymatic activity Efficacy: highest signal relative to highest signal of the reference compound; for EC50: alphascreen, GST-FXR human protein with biotin-labeled steroid receptor coactivator, read-out: FXR enzymatic activity EC50
T1 construct: purchased Invitrogen
T1 sequence (Q96RI1 1-486): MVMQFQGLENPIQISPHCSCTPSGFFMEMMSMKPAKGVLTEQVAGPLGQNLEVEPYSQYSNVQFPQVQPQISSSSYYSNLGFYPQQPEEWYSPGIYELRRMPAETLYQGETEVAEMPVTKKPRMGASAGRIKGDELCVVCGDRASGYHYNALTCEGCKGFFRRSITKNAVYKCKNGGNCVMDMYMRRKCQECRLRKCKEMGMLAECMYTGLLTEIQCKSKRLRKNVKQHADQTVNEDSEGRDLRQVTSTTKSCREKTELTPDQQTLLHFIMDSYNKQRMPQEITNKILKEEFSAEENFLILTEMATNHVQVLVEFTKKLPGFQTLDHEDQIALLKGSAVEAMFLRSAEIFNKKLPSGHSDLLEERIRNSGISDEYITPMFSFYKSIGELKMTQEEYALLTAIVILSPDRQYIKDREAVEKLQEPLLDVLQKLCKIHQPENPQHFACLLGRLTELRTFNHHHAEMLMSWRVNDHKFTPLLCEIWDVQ
Procedure: FXR Biochemical Experiment
The activation of compounds on FXR binding reaction was examined by a homogeneous proximity luminescenceamplification test (alphascreen).
Protein: glutathione-S-transferase-labeled FXR human protein (Invitrogen)
Co-activator: Biotin-labeled steroid receptor coactivator (Anaspec)
Detection reagent: homogeneous proximity luminescence amplification test (alphascreen) Detection Kit (PerkinElmer)
Compound dilution: the test compound was prepared as a 40 μM DMSO solution, and then diluted 3-fold to 10 concentration points. The reference compound was prepared as a 400 μM DMSO solution, followed by diluted 1.5-fold to 10 concentration points. The diluted DMSO solution was added to the wells of a 384-well plate in a volume of 150 nL per well.
Glutathione-S-transferase-labeled FXR human protein and biotin-labeled steroid receptor coactivator were formulated as mixed solutions with concentrations of 0.4 nM and 30 nM, respectively, which was added to the wells of the 384-well plate in a volume of 15 per well, and the plate was incubated for 1 hour at room temperature.
The experiment process was carried out with protecting from light. The incubation was performed for 1 hour at room temperature.
The experiment process was carried out by protecting from light. The incubation was performed for 1 hour at room temperature.

[3] = Pharmacokinetics in mice administrated with single compound; assay type: in vivo, C57BL/6J male mice; details: for drug exposure compared with obeticholic acid / peak concentration compared with obeticholic acid: oral, same dosage (10 mg/kg), in words
Procedure: Twelve C57BL/6J male mice were randomly divided into two groups, 6 mice in each group. […] Plasma (using K2-EDTA as anticoagulant) samples were taken at 0.083, 0.25, 0.5, 1, 2, 4, 6, 8 and 24 hours after administration for the intravenous group; and plasma samples were taken at 0.25, 0.5, 1, 2, 4, 6, 8 and 24 hours after administration for the oral group. For 6 animals in each group, blood samples were collected for 3 animals at one time point, and the first batch of 3 animals was alternately sampled with the second batch of 3 animals. Plasma sample analysis was performed by using LC-MS/MS. The obtained plasma concentrations were plotted against time, and PK parameters were calculated by using Phoenix WinNonlin 6.3.

[4] = target: T2, FXR (FXR HEK 293T DA cell line) (Homo sapiens, UniProt Q96RI1); assay: FXR cell experiment (β-lactamase reporter gene); assay type: cell-based
T2 construct: The UAS-driven beta-lactamase is the reporter
T2 sequence (Q96RI1 262-486 limits assumed): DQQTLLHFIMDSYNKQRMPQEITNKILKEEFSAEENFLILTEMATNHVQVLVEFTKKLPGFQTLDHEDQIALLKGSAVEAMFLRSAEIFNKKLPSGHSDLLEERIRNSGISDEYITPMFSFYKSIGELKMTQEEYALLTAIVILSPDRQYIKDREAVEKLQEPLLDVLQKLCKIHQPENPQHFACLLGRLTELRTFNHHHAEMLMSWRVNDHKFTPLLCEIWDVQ
Procedure: 2. Cell culture medium: DMEM medium supplemented with 10% serum and Penicillin/Streptomycin (1×).
3. Detection reagent: GeneBLAzer® Reporter Gene Detection Kit (Invitrogen)
1. Compound dilution: the test compound was prepared as a 100 μM DMSO solution, and then the compound was diluted 3-fold to 10 concentration points. The reference compound was prepared as a 100 μM DMSO solution, and then diluted 1.3-fold to 10 concentration points. The diluted DMSO solution was added to the wells of a 384-well plate in a volume of 200 nL per well.
3. The 384-well microplate was incubated at 37° C., 5% CO2 for 16 hours.
4. 6 μL of 1 mM LiveBLAzer™-FRET B/G (CCF4-AM) substrate was mixed with 60 μL of B solution and 934 μL of C solution, which was added to the wells of a 384-well plate in a volume of 8 μL per well.
5. The 384-well microplate was incubated in dark for 2 hours at room temperature.
7. Analytical data: the data were analyzed by using Prism 5.0 to calculate the EC50 value of the activation of the compound.

[5] = male, C57BL/6J, mouse, plasma, oral (intragastric) 10 mg/kg, 0.5% HPMC
[6] = oral, same dosage (2 mg/kg), 0.5 hours and 3 hours, in words

Row | SMILES | Liver concentration 0.5 h [1] | Liver/plasma concentration ratio 0.5 h [1] | Plasma concentration 0.5 h [1] | Liver concentration 3 h [1] | Liver/plasma concentration ratio 3 h [1] | Plasma concentration 3 h [1] | FXR enzymatic activity Efficacy [2] | drug exposure compared with obeticholic acid [3] | peak concentration compared with obeticholic acid [3] | EC50 ([4]; FXR HEK 293T DA cells, β-lactamase reporter, 16 hours, read-out: FXR cell viability EC50) | FXR cell viability Efficacy ([4]; highest signal relative to reference compound CDCA) | EC50 [2] | AUC [3, 5] | Cmax [3, 5] | Tmax [3, 5] | drug concentrations in the liver compared with control compound [1, 6] | liver/plasma concentration ratios compared with control compound [1, 6]
1 | CC[C@H]1[C@@H](O)[C@@H]2[C@H](CC[C@]3(C)[C@@H]([C@H](C)CCC(=O)O)CC[C@@H]23)[C@@]2(C)CC[C@@H](O)C[C@@H]12 [Obeticholic acid, obeticholic acid, reference compound] | 711 nM | 5 | 151 nM | 625 nM | 10 | 63 nM | – | – | – | – | – | – | – | – | – | – | –
2 | CC[C@H]1[C@@H](O)[C@@H]2[C@H](CC[C@]3(C)[C@@H]([C@H](C)CCOc4ncc(C(=O)O)cc4Cl)CC[C@@H]23)[C@@]2(C)CC[C@@H](O)C[C@@H]12 [The compound of formula I-Cl] | – | – | – | – | – | – | 248% | higher than that of the control compound obeticholic acid | higher than that of the control compound obeticholic acid | 3 nM | 150% | – | – | – | – | – | –
3 | CC[C@H]1[C@@H](O)[C@@H]2[C@H](CC[C@]3(C)[C@@H]([C@H](C)CCOc4ncc(C(=O)O)cc4F)CC[C@@H]23)[C@@]2(C)CC[C@@H](O)C[C@@H]12 [The compound of formula I-F] | – | – | – | – | – | – | 138% | – | – | – | – | 2.5 nM | – | – | – | – | –
4 | CC[C@H]1[C@@H](O)[C@@H]2[C@H](CC[C@]3(C)[C@@H]([C@H](C)CCOc4ccc(C(=O)O)cn4)CC[C@@H]23)[C@@]2(C)CC[C@@H](O)C[C@@H]12 [The compound of formula I-H] | 1959 nM | 24 | 83 nM | 701 nM | 16 | 45 nM | 249% | higher than that of the control compound obeticholic acid | close to that of the control compound obeticholic acid | – | – | 6 nM | 2.34 µM·h | 936 nM | 30 min | higher than those of the control compound | higher than those of the control compound
